According to patent US7312248B2, “Control of parasites in animals by the use of novel trifluoromethanesulfonanilide oxime ether derivatives” (Schering-Plough Animal Health Corporation, priority 2004, dated 2007):
Read-outs that look alike come from different tables or passages of the source.

Experiments:
Type in all cases: in vivo
Haemonchus contortus = Haemonchus contortus larvacidal (larval development) assay; conditions: 144 h, read-out: Haemonchus contortus LD99
Experimental: a) Haemonchus Contortus Larvacidal Assay:
The effect of compounds on larval development was determined in the assay described by Gill et al. (1995, International Journal of Parasitology 25:463-470). Briefly, in this assay, nematode eggs were applied to the surface of an agar matrix containing the test compound and then allowed to develop through to the L3, infective stage (6 days). The wells for each dilution of every compound (from highest to lowest concentration) were inspected to determine the well number corresponding to the lowest concentration at which development was inhibited in 99% of the nematode larvae present (LD99). Because well numbers correspond to a two-fold serial dilution of each compound, a titre (dilution factor) is generated as 2^n−1, where n is the well number. By dividing the highest concentration tested by the titre an LD99 value can be obtained, representing the concentration required to inhibit development in 99% of the nematode larvae present. The compounds supplied as solid and viscous liquids were dissolved in DMSO. Twelve serial one-half dilutions in DMSO solution were prepared from the stock solution, each of which was then diluted ⅕ with water. Aliquots (10 μl) of each dilution were transferred to the bioassay plates to give a final concentration range of 0.024 to 50 μg/ml.

[1] = test system: cat flea (Ctenocephalides felis); experiment: whole plant or invertebrate; conditions: Ctenocephalides felis; for mortality at 1.26 µg/cm2, 1.26 µg/cm2: read-out: C. felis Mortality (%) 24 h, 24 h, Laboratory 1 A data
Outline: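 Adult C. felis (3-7 days post-emergence; 15 per flask, at least 4 replicates) exposed to a glass flask base dried 24 h after coating with compound in acetone at 1.26 μg/cm^2. Held at 25±1 °C, 75±5% humidity; mortality (immobile or unable to right) scored at 8, 24 and/or 48 h as percentage.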

[2] = test system: cat flea (Ctenocephalides felis); experiment: Ctenocephalides felis adulticide assay: dose response (LC50); conditions: Laboratory 1 C data
From the text: c) Ctenocephalides felis Adulticide Assay: C. felis Dose Response
The purpose of this example was to determine the LC50 when cat fleas were contacted with a glass surface treated with sample compounds or formulations prepared as described above. Mortality of fleas was defined as follows: fleas were considered dead if they didn't move or were on their sides and unable to walk or right themselves. LC50: Lethal Concentration 50—concentration of glass surface treatment at which 50% of the cat fleas were killed. The test species was the cat flea (Ctenocephalides felis). The strain used was obtained from external suppliers as pupae and held in the laboratory under testing conditions until the adults had emerged. Fifteen (15) fleas were used in a minimum of four replicates for each dose level (total of 60 fleas per dose level). The insects were selected to be in the adult life stage, aged between 3 and 7 days post emergence.
The compounds to be tested were dissolved in acetone just prior to testing. Samples of compounds were stored in a refrigerator (5±1° C.) unless otherwise specified. During the mortality testing, the temperature was maintained at 25+1° C. Humidity was maintained at 75±5%. The base (area=159 mm^2) of a 100 mL glass Erlenmeyer (conical) flask provided the treatment surface. Flasks were pretreated with Coatasil™ glass treatment to maximise bio-availability of test compounds by preventing them from binding to the glass surface.
Six dose levels (concentrations) of test sample, in the form of a serial dilution, were derived from a pilot study and covered a range that produced very low to very high mortality. The base of the 100 mL Erlenmeyer flask was treated with 0.5 mL of test sample in acetone and gently swirled. This volume was sufficient to cover the base of the flask. Flasks were left to dry for 24 hours before flea exposure. Adult cat fleas were lightly anaesthetised by cooling and then placed into a sorting chamber, which allowed fleas to revive and jump into the Erlenmeyer flasks. Fifteen (15)adult cat fleas were collected in each flask. The top of the flasks were then covered in Parafilm™ and small holes made to allow gas exchange. A 0.5 mL volume of acetone was applied to the base of an Erlenmeyer flask and the testing proceeded in the same manner described above. Cat fleas in the treatment containers were held under testing conditions for 24 hours. Mortality resulting from the treatments was recorded at 8 and 24 hours.

[3] = lowest concentration inhibiting development in 99% of larvae, eggs to L3, 6 days, range 0.024 to 50 μg/ml
[4] = 8 h, read-out: Ctenocephalides felis Mortality (%) 8 h
[5] = 24 h, read-out: Ctenocephalides felis Mortality (%) 24 h

Structure (SMILES) | IC99 (Haemonchus contortus) [µg/mL] | mortality at 1.26 µg/cm2, 1.26 µg/cm2 ([1]; 24 h) [%] | C. felis LC50 [2] [μg/cm^2] | IC99 (Haemonchus contortus; [3]) [µg/mL] | mortality at 1.26 µg/cm2 [1, 4] [%] | mortality at 1.26 µg/cm2 [1, 5] [%]
CC/C(=N\Oc1ccc(C#N)cc1)c1cc(Cl)ccc1NS(=O)(=O)C(F)(F)F [Compound 136] | 2.5 | 74 |  |  |  | 
C/C(=N\Oc1ccc(Br)cc1)c1cc(Cl)ccc1NS(=O)(=O)C(F)(F)F [Compound 137] | 0.4 | 91 |  |  |  | 
CC/C(=N\Oc1ccc(Br)cc1)c1cc(Cl)ccc1NS(=O)(=O)C(F)(F)F [Compound 138] | 1.7 | 78 |  |  |  | 
C/C(=N\Oc1ccc(Cl)c(Cl)c1)c1cc(Cl)ccc1NS(=O)(=O)C(F)(F)F [Compound 140] | 0.7 | 71 |  |  |  | 
C/C(=N\OC(C)C)c1cc(Cl)ccc1NS(=O)(=O)C(F)(F)F [Compound 158] |  | 100 | 0.2 |  |  | 
CC/C(=N\OCC(C)C)c1cc(Cl)ccc1NS(=O)(=O)C(F)(F)F [Compound 159] |  | 100 | 0.2 |  |  | 
C/C(=N\OC1CCCCC1)c1cc(Cl)ccc1NS(=O)(=O)C(F)(F)F [Compound 161] |  | 100 | 0.2 |  |  | 
C/C(=N\OC1CCCC1)c1cc(Cl)ccc1NS(=O)(=O)C(F)(F)F [Compound 163, N-[4-chloro-2-(1-cyclopentyloxyiminoethyl)phenyl]trifluoromethanesulfonamide] |  | 100 | 0.1 |  |  | 
CC/C(=N\OC1C=CCCC1)c1cc(Cl)ccc1NS(=O)(=O)C(F)(F)F (centres unmarked) [Compound 170] |  | 97 | 0.2 |  |  | 
CC/C(=N\OC(CC)CC)c1cc(Cl)ccc1NS(=O)(=O)C(F)(F)F [Compound 171] |  | 100 | 0.4 |  |  | 
C/C(=N\OCC(C)C)c1cc(Cl)ccc1NS(=O)(=O)C(F)(F)F [Compound 172] |  | 100 | 0.06 |  |  | 
C=CCO/N=C(\C)c1cc(Cl)ccc1NS(=O)(=O)C(F)(F)F [Compound 181] |  | 100 | 0.1 |  |  | 
O=S(=O)(Nc1ccc(Cl)cc1-c1cc(-c2ccc(Cl)cc2)on1)C(F)(F)F [Compound 227] |  |  |  | 0.1 | 7 | 9
O=S(=O)(Nc1ccc(Cl)cc1-c1cc(-c2ccc(F)cc2)on1)C(F)(F)F [Compound 228] |  |  |  | 0.4 | 3 | 3
O=S(=O)(Nc1ccc(Cl)cc1-c1cc(-c2ccc(Cl)cc2Cl)on1)C(F)(F)F [Compound 229, N-{4-chloro-2-[5-(2,4-dichlorophenyl)isoxazol-3-yl]phenyl}trifluoromethanesulfonamide] |  |  |  | 0.09 | 2 | 7
O=S(=O)(Nc1ccc(Cl)cc1-c1cc(-c2ccc(Cl)c(Cl)c2)on1)C(F)(F)F [Compound 230] |  |  |  | 0.4 | 8 | 15
O=S(=O)(Nc1ccc(Cl)cc1-c1cc(-c2ccc(F)cc2F)on1)C(F)(F)F [Compound 231, N-{4-chloro-2-[5-(2,4-difluorophenyl)isoxazol-3-yl]phenyl}trifluoromethanesulfonamide] |  |  |  | 0.6 |  | 7
